Drawing on patent publication US11851449B2, “Heterocyclic amide compounds having an RORvt inhibitory action” (TAKEDA PHARMACEUTICAL COMPANY LIMITED, priority 2013, dated 2023), this text covers inhibition for 17 molecules.

In experiment [1] the target is T1, RORγt (Homo sapiens, UniProt P51449).
T1 sequence (P51449 1-497 isoform P51449-2): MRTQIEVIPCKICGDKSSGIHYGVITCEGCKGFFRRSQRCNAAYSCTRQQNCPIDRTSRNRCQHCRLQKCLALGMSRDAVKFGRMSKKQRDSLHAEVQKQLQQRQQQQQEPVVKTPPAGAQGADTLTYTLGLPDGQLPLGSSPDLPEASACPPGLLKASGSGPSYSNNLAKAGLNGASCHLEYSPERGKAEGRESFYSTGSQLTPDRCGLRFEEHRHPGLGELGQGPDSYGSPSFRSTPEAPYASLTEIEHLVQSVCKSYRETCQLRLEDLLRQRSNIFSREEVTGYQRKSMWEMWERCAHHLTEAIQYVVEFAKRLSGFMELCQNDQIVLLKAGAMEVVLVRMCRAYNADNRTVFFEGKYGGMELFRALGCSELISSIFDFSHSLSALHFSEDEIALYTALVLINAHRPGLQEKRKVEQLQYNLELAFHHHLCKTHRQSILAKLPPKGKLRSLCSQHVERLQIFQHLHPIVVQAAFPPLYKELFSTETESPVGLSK
The experiment in a line: Cofactor recruitment test (Alpha Screen, biotinylated SRC-1 peptide). The class given is biochemical. The following applies: read-out: signal value inhibitory rate (%) at test compound 1 μM. The method, then: Cofactor Recruitment Test
Cofactor recruitment test was performed by Alpha Screen (Histidine Detection Kit, PerkinElmer) method. First, a test compound was diluted with an assay buffer (50 mM Tris-HCl (pH 7.5), 50 mM KCl, 1 mM DTT, 0.1% BSA) and added to a 384 well plate by 5 μL. […] The mixture was stood in a dark place for 1 hr, and the signal value was measured by Envision (PerkinElmer).

Experiment [2] has as its target T1, RORγt. Nature of the experiment: Jurkat reporter test (human IL-17 ROR response element luciferase reporter). The class given is cell-based. The conditions noted are these: Jurkat, read-out: luminescence level inhibitory rate (%) at test compound 3 μM. The method, then:
The Jurkat cells used for the reporter test were cultured in a culture medium (RPMI (Invitrogen), 10% FCS (AusGeneX), 100 U/mL penicillin, 100 μg/mL streptomycin). On the day of the test, 4×10^7 cells were recovered by a centrifugal operation (1000 rpm, 5 min.) and suspended in PBS (phosphate buffered saline) (Invitrogen). Thereafter, the cells were recovered again by a centrifugal operation, and suspended in 2 mL of R buffer (NEON transfection kit, Invitrogen). […] Gene transfer was performed by Electroporation apparatus (NEON, Invitrogen) under the conditions of pulse voltage 1350 V, interval 10 milliseconds, number of times 3. The cells after gene transfer were suspended in 40 mL of a reaction medium (RPMI, 10% Lipid reduced FCS (HyClone), 10 mM HEPES (pH 7.5), 100 U/mL penicillin, 100 μg/mL streptomycin, 5 μM lovastatin), and plated in a 96 well plate by 90 μL. A test compound diluted with the reaction medium was added by 10 μL, and the cells were cultured overnight in an incubator. Bright-Glo (Promega) was added by 100 μL, and the mixture was stirred at room temperature for 10 min, and the luminescence level was measured by Envision (PerkinElmer).

The target of experiment [3] is T1, RORγt. Nature of the experiment: RORγt binding test (TR-FRET, fluorescent-labeled cholesterol). The conditions noted are these: read-out: binding inhibitory rate (%) of fluorescent-labeled cholesterol to RORγt at test compound 1 μM. As to the method:
The binding activity of the test compound to RORγt was measured by a time resolved fluorescence resonance energy transfer method (TR-FRET) utilizing histidine-tagged RORγt, fluorescent-labeled cholesterol (BODIPY-cholesterol, AVIVA), and terbium-labeled anti-histidine tag antibody (Invitrogen). First, a test compound diluted with an assay buffer (20 mM Tris-HCl (pH 7.5), 100 mM NaCl, 1 mM DTT, 0.1% BSA) was added to a 384 well plate by 3 μL. Then, RORγt diluted with an assay buffer to 240 nM was added by 3 μL, after which fluorescent-labeled cholesterol diluted with the assay buffer to 12 μM was added by 3 μL, and the mixture was stood at room temperature for 20 min. Thereafter, a terbium-labeled anti-histidine tag antibody diluted with the assay buffer to 8 nM was added by 3 μL. The mixture was stood at room temperature for 20 min, and fluorescence intensity (excitation wavelength 320 nm, fluorescence wavelength 520 nm, delay time 100 microseconds) was measured by Envision (PerkinElmer).

For the molecule `COc1ccc(C(NC(=O)Cc2cc(C)no2)C(=O)Nc2ccc([Si](C)(C)C)cc2)cc1` (stereo not drawn) [Example 18, 2-(4-methoxyphenyl)-2-(((3-methyl-1,2-oxazol-5-yl)acetyl)amino)-N-(4-(trimethylsilyl)phenyl)acetamide], the figures for the inhibition at 1 µM in experiment [1] and in experiment [3] were 60.3% and 101%, respectively. The inhibition at 3 µM in experiment [2] was found to be 90.9%.

`COc1ccc(C(NC(=O)Cc2ccn(C)n2)C(=O)Nc2ccc([Si](C)(C)C)cc2)cc1` (stereo not drawn) [Example 19, 2-(4-methoxyphenyl)-2-(((1-methyl-1H-pyrazol-3-yl)acetyl)amino)-N-(4-(trimethylsilyl)phenyl)acetamide]: the inhibition at 1 µM in experiment [1] stood at 50.7%; in experiment [3], 101%. In experiment [2], the inhibition at 3 µM was 84.7%.

In the case of `COc1ccc(C(NC(=O)Cc2cnn(C)c2)C(=O)Nc2ccc([Si](C)(C)C)cc2)cc1` (stereo not drawn) [Example 20, 2-(4-methoxyphenyl)-2-(((1-methyl-1H-pyrazol-4-yl)acetyl)amino)-N-(4-(trimethylsilyl)phenyl)acetamide], the inhibition at 1 µM turned out to be 73% in experiment [1] and 101% in experiment [3]. The inhibition at 3 µM in experiment [2] was 91.8%.

With `COc1ccc(C(C(=O)Nc2cc(F)c([Si](C)(C)C)cc2F)N(C)C(=O)c2cc(O)no2)cc1` (stereo not drawn) [Example 21, N-(2-((2,5-difluoro-4-(trimethylsilyl)phenyl)amino)-1-(4-methoxyphenyl)-2-oxoethyl)-3-hydroxy-N-methyl-1,2-oxazole-5-carboxamide], the inhibition at 1 µM in experiment [1] was found to be 93.1%; in experiment [3], 101%. The inhibition at 3 µM in experiment [2] came to 98.3%.

For `COCc1ccc(C(NC(=O)Cc2cnn(C)c2)C(=O)Nc2ccc([Si](C)(C)C)cc2)cc1` (stereo not drawn) [Example 22, 2-(4-(methoxymethyl)phenyl)-2-(((1-methyl-1H-pyrazol-4-yl)acetyl)amino)-N-(4-(trimethylsilyl)phenyl)acetamide], the inhibition at 1 µM in experiment [1] worked out at 90.6%; in experiment [3], 101%. Further, the inhibition at 3 µM in experiment [2] stood at 97.2%.

Take `COc1ccc([C@H](C(=O)Nc2cc(F)c([Si](C)(C)C)cc2F)N(C)C(=O)c2cc(O)no2)cc1` [Example 25, N-((1R)-2-((2,5-difluoro-4-(trimethylsilyl)phenyl)amino)-1-(4-methoxyphenyl)-2-oxoethyl)-3-hydroxy-N-methyl-1,2-oxazole-5-carboxamide]: the figures for the inhibition at 1 µM in experiment [1] and in experiment [3] were 95.7% and 102%, respectively. Besides, the inhibition at 3 µM in experiment [2] turned out to be 100%.

For the molecule `COCc1ccc(C(NC(=O)C2CNC(=O)C2)C(=O)Nc2ccc([Si](C)(C)C)c(C#N)c2)cc1` (stereo not drawn) [Example 26, N-(2-((3-cyano-4-(trimethylsilyl)phenyl)amino)-1-(4-(methoxymethyl)phenyl)-2-oxoethyl)-5-oxopyrrolidine-3-carboxamide], the inhibition at 1 µM in experiment [1] was 99.5%; in experiment [3] it was 103%. Further, the inhibition at 3 µM in experiment [2] was 97.6%.

In the case of `COc1ccc(C(NC(=O)C2CNC(=O)C2)C(=O)Nc2ccc([Si](C)(C)C)c(C#N)c2)cc1` (stereo not drawn) [Example 27, N-(2-((3-cyano-4-(trimethylsilyl)phenyl)amino)-1-(4-methoxyphenyl)-2-oxoethyl)-5-oxopyrrolidine-3-carboxamide], the inhibition at 1 µM in experiment [1] was found to be 92.5%; in experiment [3] it was 103%. Also, the inhibition at 3 µM in experiment [2] was 96%.

With `COc1ccc(C(NC(=O)C2CNC(=O)C2)C(=O)Nc2ccc([Si](C)(C)C)c(F)c2)cc1` (stereo not drawn) [Example 28, N-(2-((3-fluoro-4-(trimethylsilyl)phenyl)amino)-1-(4-methoxyphenyl)-2-oxoethyl)-5-oxopyrrolidine-3-carboxamide], the results for the inhibition at 1 µM in experiment [1] and in experiment [3] were 88% and 100%, respectively. Besides, the inhibition at 3 µM in experiment [2] was found to be 98%.

Take `COc1ccc(C(NC(=O)N2CCC(O)C2)C(=O)Nc2ccc([Si](C)(C)C)c(F)c2)cc1` (stereo not drawn) [Example 29, N-(2-((3-fluoro-4-(trimethylsilyl)phenyl)amino)-1-(4-methoxyphenyl)-2-oxoethyl)-3-hydroxypyrrolidine-1-carboxamide]: the inhibition at 1 µM in experiment [1] is 92.3%; in experiment [3] it was 101%. Moreover, in experiment [2], the inhibition at 3 µM came to 99.2%.

For the molecule `COc1ccc(C(NC(=O)N2CC(O)C2)C(=O)Nc2ccc([Si](C)(C)C)c(F)c2)cc1` (stereo not drawn) [Example 30, N-(2-((3-fluoro-4-(trimethylsilyl)phenyl)amino)-1-(4-methoxyphenyl)-2-oxoethyl)-3-hydroxyazetidine-1-carboxamide], the inhibition at 1 µM in experiment [1] came to 95.1%; in experiment [3] it was 98.5%. In experiment [2], the inhibition at 3 µM came out at 99.8%.

In the case of `COCc1ccc(C(C(=O)Nc2ccc([Si](C)(C)C)c(F)c2)N(C)C(=O)c2cc(O)no2)cc1` (stereo not drawn) [Example 31, N-(2-((3-fluoro-4-(trimethylsilyl)phenyl)amino)-1-(4-(methoxymethyl)phenyl)-2-oxoethyl)-3-hydroxy-N-methyl-1,2-oxazole-5-carboxamide], the inhibition at 1 µM in experiment [1] came to 98.3%; in experiment [3], 99.5%. The inhibition at 3 µM in experiment [2] was determined as 99.5%.

On to `COCc1ccc(C(NC(=O)C2CNC(=O)C2)C(=O)Nc2ccc([Si](C)(C)C)c(F)c2)cc1` (stereo not drawn) [Example 32, N-(2-((3-fluoro-4-(trimethylsilyl)phenyl)amino)-1-(4-(methoxymethyl)phenyl)-2-oxoethyl)-5-oxopyrrolidine-3-carboxamide], for which the inhibition at 1 µM was 95.6% in experiment [1] and 95.2% in experiment [3]. In experiment [2], the inhibition at 3 µM worked out at 99.1%.

With `COCc1ccc(C(NC(=O)N2CCC(O)C2)C(=O)Nc2ccc([Si](C)(C)C)c(F)c2)cc1` (stereo not drawn) [Example 33, N-(2-((3-fluoro-4-(trimethylsilyl)phenyl)amino)-1-(4-(methoxymethyl)phenyl)-2-oxoethyl)-3-hydroxypyrrolidine-1-carboxamide], the results for the inhibition at 1 µM in experiment [1] and in experiment [3] were 97.7% and 101%, respectively. Also, in experiment [2], the inhibition at 3 µM was 98.4%.

Take `COCc1ccc(C(NC(=O)N2CC(O)C2)C(=O)Nc2ccc([Si](C)(C)C)c(F)c2)cc1` (stereo not drawn) [Example 34, N-(2-((3-fluoro-4-(trimethylsilyl)phenyl)amino)-1-(4-(methoxymethyl)phenyl)-2-oxoethyl)-3-hydroxyazetidine-1-carboxamide]: the inhibition at 1 µM is 98.9% in experiment [1] and 101% in experiment [3]. The inhibition at 3 µM in experiment [2] stood at 99.2%.

As for `COCc1ccc(C(NC(=O)Cc2nnc(C)o2)C(=O)Nc2ccc([Si](C)(C)C)c(F)c2)cc1` (stereo not drawn) [Example 35, N-(3-fluoro-4-(trimethylsilyl)phenyl)-2-(4-(methoxymethyl)phenyl)-2-(((5-methyl-1,3,4-oxadiazol-2-yl)acetyl)amino)acetamide], the inhibition at 1 µM in experiment [1] stood at 96.6%; in experiment [3], 103%. Further, the inhibition at 3 µM in experiment [2] was determined as 101%.

Turning to `COCc1ccc(C(NC(=O)Cn2cnccc2=O)C(=O)Nc2ccc([Si](C)(C)C)c(F)c2)cc1` (stereo not drawn) [Example 36, N-(3-fluoro-4-(trimethylsilyl)phenyl)-2-(4-(methoxymethyl)phenyl)-2-(((6-oxopyrimidin-1(6H)-yl)acetyl)amino)acetamide], the inhibition at 1 µM in experiment [1] was found to be 98.2%; in experiment [3], 96.2%. Besides, in experiment [2], the inhibition at 3 µM stood at 99.8%.
